Assays:
RVH-421 = test: cells; assay type: functional, cell-based; conditions: Homo sapiens
Description: SANGER: Inhibition of human RVH-421 cell growth in a cell viability assay.

HCC1806 = test: cells; assay type: functional, cell-based; conditions: Homo sapiens;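 further: growth inhibition of the cancer cell line, determined with a cell viability assay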
Description: SANGER: Inhibition of human HCC1806 cell growth in a cell viability assay.

EGI-1 = test: cells; assay type: functional, cell-based; conditions: Homo sapiens;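 further: cell viability readout used to gauge growth inhibition of EGI-1 cells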
Description: SANGER: Inhibition of human EGI-1 cell growth in a cell viability assay.

OPM-2 = test: cells; assay type: functional, cell-based; conditions: Homo sapiens;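 further: growth of OPM-2 cells measured with a viability assay, IC50 for suppression of proliferation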
Description: SANGER: Inhibition of human OPM-2 cell growth in a cell viability assay.

P12-Ichikawa = test: cells; assay type: functional, cell-based; conditions: Homo sapiens
D-392MG = test: cells; assay type: functional, cell-based; conditions: Homo sapiens
CAMA-1 = test: cells; assay type: functional, cell-based; conditions: Homo sapiens;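 further: growth inhibition of CAMA-1 cells, read out with a cell viability assay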
Description: SANGER: Inhibition of human CAMA-1 cell growth in a cell viability assay.

NCI-H2122 = test: cells; assay type: functional, cell-based; conditions: Homo sapiens;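 further: growth inhibition of the cells, read out with a cell viability assay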
Description: SANGER: Inhibition of human NCI-H2122 cell growth in a cell viability assay.

RCM-1 = test: cells; assay type: functional, cell-based; conditions: Homo sapiens;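 further: growth inhibition of the RCM-1 line, determined with a cell viability readout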
Description: SANGER: Inhibition of human RCM-1 cell growth in a cell viability assay.

TGW = test: cells; assay type: functional, cell-based; conditions: Homo sapiens;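 further: growth inhibition of human TGW cells, read out with a cell viability assay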
Description: SANGER: Inhibition of human TGW cell growth in a cell viability assay.

DBTRG-05MG = test: cells; assay type: functional, cell-based; conditions: Homo sapiens;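 further: cell viability assay measuring growth inhibition of human DBTRG-05MG cells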
Description: SANGER: Inhibition of human DBTRG-05MG cell growth in a cell viability assay.

NCI-H1793 = test: cells; assay type: functional, cell-based; conditions: Homo sapiens;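 further: cell growth inhibition, read out by a cell viability assay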
Description: SANGER: Inhibition of human NCI-H1793 cell growth in a cell viability assay.

NCI-H187 = test: cells; assay type: functional, cell-based; conditions: Homo sapiens;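 further: growth inhibition of NCI-H187 cells, read out as cell viability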
Description: SANGER: Inhibition of human NCI-H187 cell growth in a cell viability assay.

HT1197 = test: cells; assay type: functional, cell-based, HT-1197; conditions: Homo sapiens
Description: SANGER: Inhibition of human HT-1197 cell growth in a cell viability assay.

DG-75 = test: cells; assay type: functional, cell-based; conditions: Homo sapiens;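 further: growth inhibition of DG-75 cells, read out with a cell viability assay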
Description: SANGER: Inhibition of human DG-75 cell growth in a cell viability assay.

BOKU = test: cells; assay type: functional, cell-based; conditions: Homo sapiens;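 further: growth inhibition of the human BOKU cell line, read out by a cell viability assay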
Description: SANGER: Inhibition of human BOKU cell growth in a cell viability assay.

MC-CAR = test: cells; assay type: functional, cell-based; conditions: Homo sapiens;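 further: growth inhibition of the human MC-CAR cell line, read out by a cell viability assay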
Description: SANGER: Inhibition of human MC-CAR cell growth in a cell viability assay.

SW1573 = test: cells; assay type: functional, cell-based; conditions: Homo sapiens;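 further: growth inhibition of SW1573 cells, read out with a cell viability assay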
Description: SANGER: Inhibition of human SW1573 cell growth in a cell viability assay.

KYSE-520 cell line = test: cells; assay type: functional, cell-based; conditions: Homo sapiens;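 further: growth inhibition of human KYSE-520 cells, read out with a viability assay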
Description: SANGER: Inhibition of human KYSE-520 cell growth in a cell viability assay.

SAS = test: cells; assay type: functional, cell-based; conditions: Homo sapiens;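 further: growth inhibition of SAS cells, read out with a cell viability assay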
Description: SANGER: Inhibition of human SAS cell growth in a cell viability assay.

786-0 = test: cells; assay type: functional, cell-based; conditions: Homo sapiens
Description: SANGER: Inhibition of human 786-0 cell growth in a cell viability assay.

HCC70 = test: cells; assay type: functional, cell-based; conditions: Homo sapiens;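 further: cell viability assay measuring how strongly the compound suppresses proliferation of HCC70 cells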
Description: SANGER: Inhibition of human HCC70 cell growth in a cell viability assay.

TE-15 = test: cells; assay type: functional, cell-based; conditions: Homo sapiens;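 further: cell viability readout of growth inhibition in TE-15 cells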
Description: SANGER: Inhibition of human TE-15 cell growth in a cell viability assay.

FTC-133 = test: cells; assay type: functional, cell-based; conditions: Homo sapiens
SCLC-21H = test: cells; assay type: functional, cell-based; conditions: Homo sapiens;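 further: growth inhibition of cultured human SCLC-21H cells, read out with a cell viability assay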
Description: SANGER: Inhibition of human SCLC-21H cell growth in a cell viability assay.

ESS-1 = test: cells; assay type: functional, cell-based; conditions: Homo sapiens;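 further: growth inhibition of human ESS-1 cells, read out by a cell viability assay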
Description: SANGER: Inhibition of human ESS-1 cell growth in a cell viability assay.

ASPC1 = test: cells; assay type: functional, cell-based; conditions: Homo sapiens;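 further: growth inhibition of AsPC-1 cells, read out with a cell viability assay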
Description: SANGER: Inhibition of human AsPC-1 cell growth in a cell viability assay.

COLO-680N = test: cells; assay type: functional, cell-based; conditions: Homo sapiens;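 further: cell viability assay used to measure inhibition of COLO-680N cell growth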
Description: SANGER: Inhibition of human COLO-680N cell growth in a cell viability assay.

HuCCT-1 = test: cells; assay type: functional, cell-based, HuCCT1; conditions: Homo sapiens;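 further: growth inhibition of HuCCT-1 cells, read out by a cell viability assay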
Description: SANGER: Inhibition of human HuCCT1 cell growth in a cell viability assay.

CAL-120 = test: cells; assay type: functional, cell-based; conditions: Homo sapiens;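 further: cell growth inhibition, read out as cell viability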
Description: SANGER: Inhibition of human CAL-120 cell growth in a cell viability assay.

SW1783 = test: cells; assay type: functional, cell-based; conditions: Homo sapiens
Description: SANGER: Inhibition of human SW1783 cell growth in a cell viability assay.

OAW-28 = test: cells; assay type: functional, cell-based; conditions: Homo sapiens;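 further: growth inhibition of OAW-28 cells, read out with a cell viability assay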
Description: SANGER: Inhibition of human OAW-28 cell growth in a cell viability assay.

NCI-H520 = test: cells; assay type: functional, cell-based; conditions: Homo sapiens;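 further: growth inhibition of NCI-H520 cells, measured by a cell viability assay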
Description: SANGER: Inhibition of human NCI-H520 cell growth in a cell viability assay.

SCC-25 = test: cells; assay type: functional, cell-based; conditions: Homo sapiens;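 further: growth inhibition of SCC-25 cells, measured with a cell viability assay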
Description: SANGER: Inhibition of human SCC-25 cell growth in a cell viability assay.

HMV-2 cell line = test: cells; assay type: functional, cell-based; conditions: Homo sapiens;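 further: growth inhibition of HMV-II cells, read out with a cell viability assay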
Description: SANGER: Inhibition of human HMV-II cell growth in a cell viability assay.

COLO-678 = test: cells; assay type: functional, cell-based; conditions: Homo sapiens
Description: SANGER: Inhibition of human COLO-678 cell growth in a cell viability assay.

YT = test: cells; assay type: functional, cell-based; conditions: Homo sapiens
Description: SANGER: Inhibition of human YT cell growth in a cell viability assay.

SU-DHL-1 = test: SANGER: Inhibition of human SU-DHL-1 cell growth in a cell viability assay.; assay type: functional, cell-based
HSC-4 = test: cells; assay type: functional, cell-based; conditions: Homo sapiens;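 further: growth inhibition of human HSC-4 cells, read out with a cell viability assay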
Description: SANGER: Inhibition of human HSC-4 cell growth in a cell viability assay.

MFE-280 = test: cells; assay type: functional, cell-based; conditions: Homo sapiens;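 further: growth inhibition of MFE-280 cells, determined with a cell viability readout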
Description: SANGER: Inhibition of human MFE-280 cell growth in a cell viability assay.

BL-70 = test: SANGER: Inhibition of human BL-70 cell growth in a cell viability assay.; assay type: functional, cell-based
CAL-72 = test: cells; assay type: functional, cell-based; conditions: Homo sapiens;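 further: cell viability assay measuring inhibition of proliferation in the CAL-72 cell line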
Description: SANGER: Inhibition of human CAL-72 cell growth in a cell viability assay.

SW948 = test: cells; assay type: functional, cell-based; conditions: Homo sapiens;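 further: growth inhibition of SW948 cells, read out with a cell viability assay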
Description: SANGER: Inhibition of human SW948 cell growth in a cell viability assay.

RPMI-6666 = test: cells; assay type: functional, cell-based; conditions: Homo sapiens
Description: SANGER: Inhibition of human RPMI-6666 cell growth in a cell viability assay.

MONO-MAC-6 = test: cells; assay type: functional, cell-based; conditions: Homo sapiens;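 further: cell viability assay measuring growth inhibition of human MONO-MAC-6 cells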
Description: SANGER: Inhibition of human MONO-MAC-6 cell growth in a cell viability assay.

8305C = test: cells; assay type: functional, cell-based; conditions: Homo sapiens
Description: SANGER: Inhibition of human 8305C cell growth in a cell viability assay.

RPMI-7951 = test: cells; assay type: functional, cell-based; conditions: Homo sapiens
Description: SANGER: Inhibition of human RPMI-7951 cell growth in a cell viability assay.

NCI-H358 = test: cells; assay type: functional, cell-based; conditions: Homo sapiens;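 further: growth inhibition of NCI-H358 human cells, read out with a cell viability assay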
Description: SANGER: Inhibition of human NCI-H358 cell growth in a cell viability assay.

HLE = test: cells; assay type: functional, cell-based; conditions: Homo sapiens;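 further: growth inhibition of human HLE cells, read out by a cell viability assay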
Description: SANGER: Inhibition of human HLE cell growth in a cell viability assay.

Capan-2 = test: cells; assay type: functional, cell-based; conditions: Homo sapiens;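 further: Capan-2 cell growth inhibition, read out with a viability assay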
Description: SANGER: Inhibition of human Capan-2 cell growth in a cell viability assay.

LK-2 = test: cells; assay type: functional, cell-based; conditions: Homo sapiens;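 further: growth inhibition of LK-2 cells, read out with a viability assay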
Description: SANGER: Inhibition of human LK-2 cell growth in a cell viability assay.

VM-CUB-1 = test: cells; assay type: functional, cell-based; conditions: Homo sapiens;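 further: cell viability assay measuring growth inhibition of the human VM-CUB-1 cell line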
Description: SANGER: Inhibition of human VM-CUB-1 cell growth in a cell viability assay.

T84 = test: cells; assay type: functional, cell-based; conditions: Homo sapiens;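 further: growth inhibition measured with a cell viability readout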
Description: SANGER: Inhibition of human T84 cell growth in a cell viability assay.

PF-382 = test: cells; assay type: functional, cell-based; conditions: Homo sapiens
Description: SANGER: Inhibition of human PF-382 cell growth in a cell viability assay.

MDA-MB-415 = test: cells; assay type: functional, cell-based; conditions: Homo sapiens
NCI-H2405 = test: cells; assay type: functional, cell-based; conditions: Homo sapiens;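 further: growth inhibition of the human cell line, read out with a cell viability assay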
Description: SANGER: Inhibition of human NCI-H2405 cell growth in a cell viability assay.

HGC-27 = test: cells; assay type: functional, cell-based; conditions: Homo sapiens;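 further: growth inhibition of human HGC-27 cells, read out in a cell viability assay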
Description: SANGER: Inhibition of human HGC-27 cell growth in a cell viability assay.

LU-99A = test: cells; assay type: functional, cell-based; conditions: Homo sapiens;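 further: growth inhibition of LU-99A cells, read out with a cell viability assay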
Description: SANGER: Inhibition of human LU-99A cell growth in a cell viability assay.

HCC1954 = test: cells; assay type: functional, cell-based; conditions: Homo sapiens;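 further: growth inhibition of human HCC1954 cells, read out with a cell viability assay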
Description: SANGER: Inhibition of human HCC1954 cell growth in a cell viability assay.

MDA-MB-453 = test: cells; assay type: functional, cell-based; conditions: Homo sapiens
Description: SANGER: Inhibition of human MDA-MB-453 cell growth in a cell viability assay.

NCI-H1693 = test: cells; assay type: functional, cell-based; conditions: Homo sapiens;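 further: growth inhibition of the human cell line, read out with a cell viability assay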
Description: SANGER: Inhibition of human NCI-H1693 cell growth in a cell viability assay.

FaDu = test: cells; assay type: functional, cell-based; conditions: Homo sapiens;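 further: cell viability readout of growth inhibition in FaDu cells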
Description: SANGER: Inhibition of human FADU cell growth in a cell viability assay.

NCI-H596 = test: cells; assay type: functional, cell-based; conditions: Homo sapiens;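 further: growth inhibition of NCI-H596 cells, read out with a cell viability assay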
Description: SANGER: Inhibition of human NCI-H596 cell growth in a cell viability assay.

REH = test: cells; assay type: functional, cell-based; conditions: Homo sapiens;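 further: growth inhibition of REH cells determined with a cell viability read-out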
Description: SANGER: Inhibition of human REH cell growth in a cell viability assay.

SMILES: CO[C@@]12[C@H](COC(N)=O)C3=C(C(=O)C(C)=C(N)C3=O)N1C[C@@H]1N[C@@H]12 [MITOMYCIN]
- IC50 (RVH-421): 629 nM
- IC50 (HCC1806): 135 nM
- IC50 (EGI-1): 2390 nM
- IC50 (OPM-2): 6350 nM
- IC50 (P12-Ichikawa): < 62.5 nM
- IC50 (D-392MG): 6680 nM
- IC50 (CAMA-1): 541 nM
- IC50 (NCI-H2122): < 62.5 nM
- IC50 (RCM-1): 847 nM
- IC50 (TGW): 2760 nM
- IC50 (DBTRG-05MG): 570 nM
- IC50 (NCI-H1793): 1810 nM
- IC50 (NCI-H187): 708 nM
- IC50 (HT1197): 2020 nM
- IC50 (DG-75): 6250 nM
- IC50 (BOKU): 104 nM
- IC50 (MC-CAR): 161 nM
- IC50 (SW1573): 145 nM
- IC50 (KYSE-520 cell line): 772 nM
- IC50 (SAS): 615 nM
- IC50 (786-0): < 62.5 nM
- IC50 (HCC70): 694 nM
- IC50 (TE-15): 73.7 nM
- IC50 (FTC-133): 517 nM
- IC50 (SCLC-21H): 963 nM
- IC50 (ESS-1): < 62.5 nM
- IC50 (ASPC1): 2900 nM
- IC50 (COLO-680N): 244 nM
- IC50 (HuCCT-1): 904 nM
- IC50 (CAL-120): 5960 nM
- IC50 (SW1783): 38.6 nM
- IC50 (OAW-28): 441 nM
- IC50 (NCI-H520): 169 nM
- IC50 (SCC-25): 870 nM
- IC50 (HMV-2 cell line): 166 nM
- IC50 (COLO-678): 2890 nM
- IC50 (YT): 463 nM
- IC50 (SU-DHL-1): < 62.5 nM
- IC50 (HSC-4): 434 nM
- IC50 (MFE-280): 8350 nM
- IC50 (BL-70): 1280 nM
- IC50 (CAL-72): > 16000 nM
- IC50 (SW948): 3750 nM
- IC50 (RPMI-6666): 220 nM
- IC50 (MONO-MAC-6): 72.4 nM
- IC50 (8305C): 156 nM
- IC50 (RPMI-7951): 168 nM
- IC50 (NCI-H358): 276 nM
- IC50 (HLE): 498 nM
- IC50 (Capan-2): 2790 nM
- IC50 (LK-2): 358 nM
- IC50 (VM-CUB-1): 261 nM
- IC50 (T84): 173 nM
- IC50 (PF-382): 251 nM
- IC50 (MDA-MB-415): 724 nM
- IC50 (NCI-H2405): 294 nM
- IC50 (HGC-27): 49.3 nM
- IC50 (LU-99A): 224 nM
- IC50 (HCC1954): 2280 nM
- IC50 (MDA-MB-453): 1080 nM
- IC50 (NCI-H1693): 900 nM
- IC50 (FaDu): 128 nM
- IC50 (NCI-H596): 1540 nM
- IC50 (REH): < 62.5 nM

SMILES: CC(C)=CC[C@@H](O)C1=CC(=O)c2c(O)ccc(O)c2C1=O [SHIKONIN]
- IC50 (RVH-421): 1470 nM
- IC50 (HCC1806): 1270 nM
- IC50 (EGI-1): 2510 nM
- IC50 (OPM-2): 343 nM
- IC50 (P12-Ichikawa): 1390 nM
- IC50 (D-392MG): 915 nM
- IC50 (CAMA-1): 1520 nM
- IC50 (NCI-H2122): > 16000 nM
- IC50 (RCM-1): 2000 nM
- IC50 (TGW): 522 nM
- IC50 (DBTRG-05MG): 611 nM
- IC50 (NCI-H1793): > 16000 nM
- IC50 (NCI-H187): 2360 nM
- IC50 (HT1197): 276 nM
- IC50 (DG-75): 1170 nM
- IC50 (BOKU): 1870 nM
- IC50 (MC-CAR): 814 nM
- IC50 (SW1573): 372 nM
- IC50 (KYSE-520 cell line): 598 nM
- IC50 (SAS): 854 nM
- IC50 (786-0): 344 nM
- IC50 (HCC70): 2010 nM
- IC50 (TE-15): 400 nM
- IC50 (FTC-133): 5740 nM
- IC50 (SCLC-21H): 1360 nM
- IC50 (ESS-1): > 16000 nM
- IC50 (ASPC1): 619 nM
- IC50 (COLO-680N): 590 nM
- IC50 (HuCCT-1): 483 nM
- IC50 (CAL-120): 1360 nM
- IC50 (SW1783): 1070 nM
- IC50 (OAW-28): 1200 nM
- IC50 (NCI-H520): 1350 nM
- IC50 (SCC-25): 383 nM
- IC50 (HMV-2 cell line): 56.4 nM
- IC50 (COLO-678): 1630 nM
- IC50 (YT): 384 nM
- IC50 (SU-DHL-1): 499 nM
- IC50 (HSC-4): 2120 nM
- IC50 (MFE-280): 4950 nM
- IC50 (BL-70): 278 nM
- IC50 (CAL-72): 1010 nM
- IC50 (SW948): 11900 nM
- IC50 (RPMI-6666): 587 nM
- IC50 (MONO-MAC-6): 245 nM
- IC50 (8305C): 305 nM
- IC50 (RPMI-7951): 156 nM
- IC50 (NCI-H358): 658 nM
- IC50 (HLE): 88.3 nM
- IC50 (Capan-2): 1010 nM
- IC50 (LK-2): 8570 nM
- IC50 (VM-CUB-1): 1030 nM
- IC50 (T84): 14500 nM
- IC50 (PF-382): 790 nM
- IC50 (MDA-MB-415): 2280 nM
- IC50 (NCI-H2405): 675 nM
- IC50 (HGC-27): 228 nM
- IC50 (LU-99A): 1300 nM
- IC50 (HCC1954): 902 nM
- IC50 (MDA-MB-453): 2520 nM
- IC50 (NCI-H1693): > 16000 nM
- IC50 (FaDu): 1770 nM
- IC50 (NCI-H596): 818 nM
- IC50 (REH): 147 nM

— ChEMBL document CHEMBL1201861, “Genomics of Drug Sensitity in Cancer screening data, Wellcome Trust Sanger Institute”
